Results taken from patent publication US20220241416A1, “METHODS FOR THE IDENTIFICATION OF SARM1 NADASE ACTIVITY INHIBITORS AND USES THEREOF” (Bar Ilan University, priority 2021, published 2022).
“Also recorded” adds a separate entry of the source. Like-named read-outs stand apart in the source and are kept apart here.

Key:
[1] = target: T1, hSARM1 (Homo sapiens, UniProt Q6SZW1); assay: HPLC analysis of time dependent NAD+ consumption by hSARM1; format: biochemical; details: 50 μM NAD+
T1 construct: hSARM1w.t; (26ERL . . . GPT724) that was not mutated in E642, was also expressed and isolated; 6xHis (N); TEV cleavage site (N); made in house; host or cells: HEK293F suspension cells
T1 sequence (Q6SZW1 with tags, fused parts or gaps): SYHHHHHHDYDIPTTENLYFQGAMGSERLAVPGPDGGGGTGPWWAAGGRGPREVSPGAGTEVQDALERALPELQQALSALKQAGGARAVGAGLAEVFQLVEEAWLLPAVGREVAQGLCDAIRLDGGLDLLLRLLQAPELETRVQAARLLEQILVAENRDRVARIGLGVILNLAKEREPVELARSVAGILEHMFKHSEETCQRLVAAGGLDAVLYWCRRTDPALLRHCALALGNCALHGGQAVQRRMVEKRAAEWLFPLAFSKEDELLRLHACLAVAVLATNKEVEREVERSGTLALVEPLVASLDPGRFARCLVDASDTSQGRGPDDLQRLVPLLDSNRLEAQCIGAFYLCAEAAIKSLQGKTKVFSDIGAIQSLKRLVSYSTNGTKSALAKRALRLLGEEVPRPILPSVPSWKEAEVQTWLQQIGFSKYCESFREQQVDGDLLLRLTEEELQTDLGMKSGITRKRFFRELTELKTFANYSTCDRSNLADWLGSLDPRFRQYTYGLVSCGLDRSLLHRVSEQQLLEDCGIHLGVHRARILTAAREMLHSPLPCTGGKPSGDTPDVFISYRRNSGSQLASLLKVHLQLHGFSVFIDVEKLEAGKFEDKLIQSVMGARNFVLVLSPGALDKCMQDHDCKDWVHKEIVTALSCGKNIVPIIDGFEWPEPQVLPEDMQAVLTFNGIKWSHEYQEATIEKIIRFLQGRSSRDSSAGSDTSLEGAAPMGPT
Procedure: Purified hSARM1w.t. was first diluted to 800 nM in 25 mM HEPES pH 7.5, 150 mM NaCl, and then mixed in 37° C. with different concentrations of NAD+(in the same buffer) in a 1:1 v/v ratio and incubated for 0, 5 and 30 min. 1:100 (v/v). BSA (NEB Inc. 20 mg/ml) was included, and reactions were stopped by heating at 95° C. for 2 minutes. Where specified, NMN (Sigma-Aldrich-N3501) was added in different concentrations. For control, NAD+ consumption was compared to a commercially available porcine brain NADase 0.025 units/ml (Sigma-Aldrich-N9879).
HPLC measurements were performed using a Merck Hitachi Elite LaChrom HPLC system equipped with an autosampler, UV detector and quaternary pump. HPLC traces were monitored at 260 nm and integrated using EZChrom Elite software. 10 μL of each sample were injected onto a Waters Spherisorb ODS1 C18 RP HPLC Column (5 μm particle size, 4.6 mm×150 mm ID). HPLC solvents are: A: 100% methanol; B: 120 mM sodium phosphate pH 6.0; C double-distilled water (DDW). The column was pre-equilibrated with B:C mixture ratio of 80:20. Chromatography was performed at room temperature with a flow rate of 1.5 ml/min. Each analysis cycle was 12 min long as follows (A:B:C, v/v): fixed 0:80:20 0-4 min; gradient to 20:80:0 4-6 min; fixed 20:80:0 from 6-9 min. gradient to 0:80:20 from 9-10 min; fixed 0:80:20 from 10-12 min. The NAD+ hydrolysis product ADPR was eluted at the isocratic stage of the chromatography while NAD+ elutes in the methanol gradient stage.

[2] = target: T1, hSARM1; assay: Determination of IC50 and mode of inhibition of hSARM1 NADase (ADPR by HPLC); format: biochemical; details: for mode of inhibition, Lineweaver-Burk plot: 10 μM inhibitor, NAD+ 1-160 μM; for IC50: 50 μM NAD+, 10 min pre-incubation at room temperature, 10 min at 37° C.
[3] = tested on: Mouse DRG explants; assay: Axon degeneration assay after axotomy, DRG explants; format: cell-based; details: 10-30 μM compound; 16 hours post axotomy
Procedure: (§1) FIG. 15A. Mouse DRG explants cultures were grown in NGF containing media for 96 hours. Right before axotomy, the media was exchanged and supplemented with either 10-30 μM of the hSARM1 inhibitory compounds or just with 0.2% DMSO for control, and then the culture were left to grow for additional 16 hours. The white dashed lines indicate cut site (axotomy). To evaluate toxic side effects, we applied […] of the inhibitory compounds without performing axotomy. The axons were stained with anti-Tuj1 antibody.
(§2) Dorsal root ganglion (DRG) were dissected from E13.5 wild-type mice and plated in 8-wells chamber coated with 10 μg/ml poly-d-lysin (Sigma-Aldrich, St Louis. Mo.) and 10 μg/ml mouse Laminin (Sigma-Aldrich). The DRGs were grown in Neurobasal™-A (NB, GIBCO, 10888022) medium supplemented with B27 (Gibco, Waltham, Mass.), penicillin-streptomycin solution, glutamine (Biological Industries, Beit HaEmek, Israel), and NGF (Alomone Labs. Jerusalem, Israel) in a humidified incubator (37° C. 5% CO2).
(§3) After 96 h, the medium was exchanged to NGF containing medium, supplemented with 10-30 μM SARM1 inhibitory compounds, which were first dissolved in DMSO to a 10 mM stock concentration. For axotomy, axons were cut using a needle, in close proximity to the cell body and were examined 16 hours post-axotomy. […]
(§4) Images were binarized such that pixels corresponding to axons converted to white, while all other regions converted to black. The images were analyzed using Image) software with algorithm that distinguishes fragmented from intact axonal segments. To each image we calculated the degeneration index (DI) defined as the ratio of fragmented to intact axon number. To quantify axonal protection, we normalized the DI values to DMSO with axotomy, and then we divide one by each calculated value. […] To quantify axonal degeneration caused by the compounds' toxicity, we normalized the DI values to DMSO control without axotomy and generated a degeneration index. From each explant, 4 nonoverlapping frames were randomly collected and quantified per experimental condition.

[4] = target: T2, zfSARM1 (Danio rerio, UniProt F1QWA8); assay: Effect of hSARM1 inhibitors on zfSARM1 NADase activity (ADPR by HPLC); format: biochemical, Zebrafish
T2 sequence (F1QWA8 1-713): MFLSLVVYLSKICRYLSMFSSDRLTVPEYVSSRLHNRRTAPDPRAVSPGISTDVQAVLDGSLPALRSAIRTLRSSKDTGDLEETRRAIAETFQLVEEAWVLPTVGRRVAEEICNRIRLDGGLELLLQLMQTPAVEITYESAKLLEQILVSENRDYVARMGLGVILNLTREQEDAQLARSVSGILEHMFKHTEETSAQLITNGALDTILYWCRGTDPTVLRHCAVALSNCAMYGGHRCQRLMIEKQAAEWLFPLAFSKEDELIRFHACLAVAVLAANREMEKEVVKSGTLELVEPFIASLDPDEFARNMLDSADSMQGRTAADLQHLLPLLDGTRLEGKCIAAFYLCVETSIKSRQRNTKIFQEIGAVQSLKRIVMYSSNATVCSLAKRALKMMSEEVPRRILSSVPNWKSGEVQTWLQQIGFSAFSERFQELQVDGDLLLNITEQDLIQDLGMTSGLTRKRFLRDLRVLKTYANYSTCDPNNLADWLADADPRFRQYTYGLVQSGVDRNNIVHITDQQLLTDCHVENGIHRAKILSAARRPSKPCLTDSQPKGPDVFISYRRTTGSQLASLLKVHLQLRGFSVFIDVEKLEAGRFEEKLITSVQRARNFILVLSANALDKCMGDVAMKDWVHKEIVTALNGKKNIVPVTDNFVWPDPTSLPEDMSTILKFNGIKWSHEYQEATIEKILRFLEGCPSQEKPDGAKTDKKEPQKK

[5] = tested on: Mouse DRG explants; assay: Toxic side effects on DRG explants without axotomy; format: cell-based; details: 10-30 μM compound; no axotomy
Procedure: as §1, §2, §3, §4

[6] = target: hSARM1 FP255-6RR (human) (UniProt Q6SZW1); assay: cell-based or functional assay
[7] = target: hSARM1RR216-7EE/FP255-6RR (human) (UniProt Q6SZW1); assay: cell-based or functional assay

IC50 [2]	Compound	mode of inhibition, Lineweaver-Burk plot [2]	protection of axons after axotomy [3]	toxic effect on axons without axotomy [5]	also measured
–	NC(=O)c1ccc[n+]([C@@H]2O[C@H](COP(=O)([O-])O)[C@@H](O)[C@H]2O)c1 [NMN, nicotinamide mononucleotide, reference compound]	–	–	–	effect on hSARM1 NADase activity ([1]; 0.2 mM NMN): no visible effect; increase in hSARM1 NADase activity ([1]; 1 mM NMN): 30%
–	O=NN1CCCCC1 [TK138]	competitive pattern	high level of protection; also recorded: highest level of protection	only very mildly toxic; also recorded: significant toxic effect	EC50 ([4]; 50 μM NAD+, ADPR production by HPLC, read-out: EC50, activation of zfSARM1 NADase): 2.7 µM
≤ 10 µM	CCOC(=O)Cn1sc2nc(C)cc(C)c2c1=O [TK142]	competitive pattern	only mild protection	not toxic at all	effect on zfSARM1 NADase activity (words) [4]: concentration-dependent inhibitory effects; effect on zfSARM1 NADase activity (words) ([4]; listed as TK 142): specific inhibitory effect
≤ 10 µM	O=C(c1ccccn1)N1C[C@H]2OC(=O)N(CCCN3CCOCC3)[C@H]2C1 [TK174]	–	did not protect axons after axotomy	not toxic	–
–	hSARM1 FP255-6RR (from UniProt Q6SZW1 26-724) (enzyme)	–	–	–	cell death 24 hours after transfection (resazurin fluorescence assay, HEK-293T cells) [6]: 50%
–	hSARM1RR216-7EE/FP255-6RR (from UniProt Q6SZW1 26-724) (enzyme)	–	–	–	cell death 24 hours after transfection (resazurin fluorescence assay, HEK-293T cells) [7]: 50%
